Source: US9827229B2, “Small molecule securinine and norsecurinine analogs and their use in cancers, inflammatory diseases and infections” (INVENIO THERAPEUTICS INC., priority 2013, dated 2017)
Where two headings read alike, the source gives them in different places.

How the values were obtained:
HL60 cells [1] = assay: Differentiation of HL60 cells (Dif50); assay type: cell-based, human
Source text: The tested compounds and their respective results are produced in Table 1. Those skilled in the art will appreciate that combining the securinine and/or norsecurinine analogs with other differentiation inducing agents, such as all-trans retinoic acid, cytarabine and/or an anthracycline, would be of further benefit. Those skilled in the art will appreciate that inducing differentiation may further reduce oxidative damage due to lower presence of radical inducing enzymes (see, e.g., Yamada et al. J Biol Chem 259(5)3021-3025 (1984) and Weil et al., PNAS 84:2057-2061 (1987)).
(§1) The analogs were then tested and evaluated on the ability to affect differentiation and growth of HL60 cells.

OCI = assay: Growth inhibition of AML cell line OCI; assay type: cell-based, human; settings: Homo sapiens
Source text: (§2) The analogs were then further tested for inhibiting growth against various cancer cell lines: AML (Mol3, OCI), Colon cancer (HCT116) and Ovary cancer (SKOV3). IC50 are documented in Table 2.

SKOV3 P53+/+ = assay: Growth inhibition of ovary cancer SKOV3 P53+/+; assay type: cell-based
Source text: as §2

HCT116 P53+/+ = assay: Growth inhibition of colon cancer HCT116 P53+/+; assay type: cell-based; settings: Homo sapiens, HCT-116, colon cancer HCT116 P53+/+
Source text: as §2

HCT116 P53−/− = assay: Growth inhibition of colon cancer HCT116 P53−/−; assay type: cell-based; settings: Homo sapiens, HCT-116, colon cancer HCT116 P53−/−
Source text: as §2

MOL3 = assay: Growth inhibition of AML cell line MOL3; assay type: cell-based, human; settings: Homo sapiens
Source text: as §2

SKOV3 P53−/− = assay: Growth inhibition of ovary cancer SKOV3 P53−/−; assay type: cell-based
Source text: as §2

HL60 cells [2] = assay: Growth of HL60 cells (IC50); assay type: cell-based, human; parameters: HL-60, Dif50/IC50 column: second value of 'x/y at 1.25 uM' (growth): unit not given here; settings: for IC50: Homo sapiens, HL-60, HL-60 cells, growth, read-out: HL-60, IC50
Experimental: as §1

[3] = Homo sapiens, HL-60, HL-60 cells, differentiation, no unit in head or cell (other cells of the column print uM), read-out: HL-60, Dif50
[4] = Homo sapiens, HL-60, read-out: HL-60, Dif50, HL-60 cells, differentiation, no unit in head or cell (other cells of the column print uM)
[5] = read-out: HL-60, Dif50, HL-60 cells, differentiation, no unit in head or cell (other cells of the column print uM)
[6] = Homo sapiens, SK-OV-3, ovary cancer SKOV3 P53+/+
[7] = Homo sapiens, SK-OV-3, ovary cancer SKOV3 P53−/−

SMILES | EC50 (HL60 cells [1]; [3]) [µM] | IC50 (SKOV3 P53+/+; [6]) [nM] | IC50 (HCT116 P53+/+) [nM] | IC50 (HCT116 P53−/−) [nM] | IC50 (SKOV3 P53−/−; [7]) [nM] | also measured
O=C1C=C2C[C@@H](SCC(F)(F)F)[C@@H]3C[C@@]2(O1)[C@H]1CCCCN31 [INVS-MG-5C] | 20 to 30 |  |  |  |  | 
O=C1C=C2CC(SCCSC3CC4=CC(=O)O[C@]45C[C@H]3N3CCCC[C@H]35)[C@@H]3C[C@@]2(O1)[C@H]1CCCCN31 (stereo partly shown) [INVS-MG-7C] | 10 to 15 |  |  |  |  | 
CCCNC1CC2=CC(=O)O[C@@]23C[C@@H]1N1CCCC[C@@H]13 (stereo partly shown) [INVS-MG-44] | 15 to 20 |  |  |  |  | 
CCN(CC)CCSC1CC2=CC(=O)O[C@@]23C[C@@H]1N1CCCC[C@@H]13 (stereo partly shown) [INVS-MG-60] | 15 to 20 |  |  |  |  | 
O=C1C=C2[C@@H]3C=CC[C@@]2(O1)[C@H]1CCCCN1O3 [INVS-MG-74A] | > 30 |  |  |  |  | 
O=C1O[C@]23CC4OC4[C@H](ON4CCCC[C@@H]42)C32OC12 (stereo partly shown) [INVS-MG-76-aq] |  |  |  |  |  | EC50 (HL60 cells [1]; [4]): > 30 µM
O=C1O[C@]23CC4OC4[C@H](ON4CCCC[C@@H]42)C32OC12 (stereo partly shown) [INVS-MG-77-aq] |  |  |  |  |  | EC50 (HL60 cells [1]; [5]): > 30 µM
O=C1C=C2C(I)=C[C@@H]3C[C@@]2(O1)[C@H]1CCCCN31 [INVS-MG-82-II] |  | 1600 | 1400 | 1100 | 3100 | IC50 (OCI): 100 nM; IC50 (MOL3): 90 nM
COc1ccc(CN[C@@H]2CC3=CC(=O)O[C@@]34C[C@@H]2N2CCCC[C@@H]24)cc1 [INVS-MG-86C] | > 30 |  |  |  |  | 
O=C1C=C2C=C[C@@H]3C[C@@]2(O1)[C@H]1CCCCN31 [INVS-MG-94-aq] |  |  |  |  |  | EC50 (HL60 cells [1]; [5]): > 30 µM
CO[C@H]1CC2=CC(=O)O[C@@]23C[C@@H]1N1CCCC[C@@H]13 [INVS-MG-97-IIB] |  |  |  |  |  | EC50 (HL60 cells [1]; [4]): > 30 µM
NC1CC2=CC(=O)O[C@@]23C[C@@H]1N1CCCC[C@@H]13 (stereo partly shown) [INVS-MG-97-IIE] | 20 to 30 |  |  |  |  | 
O=C1C=C2C[C@H](NCCc3cc4ccccc4[nH]3)[C@@H]3C[C@@]2(O1)[C@H]1CCCCN31 [INVS-MG-98B] | 10 to 15 |  |  |  |  | 
O=C1C=C2C(C#Cc3ccccc3)=C[C@@H]3C[C@@]2(O1)[C@H]1CCCCN31 [INVS-MG-110B] |  | 2100 | 1900 | 2300 | 3000 | IC50 (OCI): 80 nM; IC50 (MOL3): 70 nM
CN(C)CC#CC1=C[C@@H]2C[C@@]3(OC(=O)C=C13)[C@H]1CCCCN21 [INVS-MG-111B] |  | 1800 | 1100 | 1500 | 2800 | IC50 (OCI): 90 nM; IC50 (MOL3): 70 nM
CCOC#CC1=C[C@@H]2C[C@@]3(OC(=O)C=C13)[C@H]1CCCCN21 [INVS-MG-120A] |  | 1900 | 1600 | 2100 | 2600 | 
N#CCCCC#C/C(=C\C1=C[C@@H]2C[C@@]3(OC(=O)C=C13)[C@H]1CCCCN21)CCCC#N [INVS-MG-125-IIB] |  |  |  |  |  | HL-60, Dif50/IC50 column: second value of 'x/y at 10 uM' (growth) (HL60 cells [2]; HL-60 cells): 35; HL-60, Dif50/IC50 column: first value of 'x/y at 10 uM' (differentiation) (HL60 cells [1]; HL-60 cells): 40
N#CCCCC#CC1=C[C@@H]2C[C@@]3(OC(=O)C=C13)[C@H]1CCCCN21 [INVS-MG-125A] |  | 1300 | 1300 | 2000 | 2400 | 
C=C(C)CC#CC1=C[C@@H]2C[C@@]3(OC(=O)C=C13)[C@H]1CCCCN21 [INVS-MG-132A] |  | 2400 | 2400 | 2200 | 3800 | IC50 (OCI): 200 nM
COc1ccc(C#CC2=C[C@@H]3C[C@@]4(OC(=O)C=C24)[C@H]2CCCCN32)cc1 [INVS-MG-134C] |  | 1200 | 1000 | 1100 | 2800 | IC50 (OCI): 80 nM; IC50 (MOL3): 60 nM
O=C1C=C2C(C#Cc3ccsc3)=C[C@@H]3C[C@@]2(O1)[C@H]1CCCCN31 [INVS-MG-136B] |  |  | 2200 | 2100 |  | IC50 (SKOV3 P53+/+; ovary cancer SKOV3 P53+/+): 2800 nM; IC50 (MOL3): 60 nM; IC50 (SKOV3 P53−/−; ovary cancer SKOV3 P53−/−): 2900 nM

SMILES | EC50 (HL60 cells [1]; [3]) [µM] | IC50 (SKOV3 P53+/+; [6]) [nM] | IC50 (HCT116 P53+/+) [nM] | IC50 (HCT116 P53−/−) [nM] | IC50 (SKOV3 P53−/−; [7]) [nM] | also measured
CCN(CC)CC#CC1=C[C@@H]2C[C@@]3(OC(=O)C=C13)[C@H]1CCCCN21 [INVS-MG-145A] |  | 800 | 1100 | 2100 | 1200 | 
CN(C)c1ccc(C#CC2=C[C@@H]3C[C@@]4(OC(=O)C=C24)[C@H]2CCCCN32)cc1 [INVS-MG-146B] |  | 700 | 800 | 1800 | 800 | 
COc1ccc2cc(C#CC3=C[C@@H]4C[C@@]5(OC(=O)C=C35)[C@H]3CCCCN43)ccc2c1 [INVS-MG-157B] |  | < 600 | 700 | 900 | 700 | IC50 (HL60 cells [2]; no unit in head or cell (other cells of the column print uM)): 0.07 to 0.156 µM; IC50 (MOL3): 90 nM
O=C1C=C2C(C#Cc3cc4ccccc4c4ccccc34)=C[C@@H]3C[C@@]2(O1)[C@H]1CCCCN31 [INVS-MG-158B] |  | 1200 | 1200 | 2300 | 3100 | 
C=CCOCC#CC1=C[C@@H]2C[C@@]3(OC(=O)C=C13)[C@H]1CCCCN21 [INVS-MG-159A] |  |  |  |  |  | HL-60, Dif50/IC50 column: second value of 'x/y at 10 uM' (growth) (HL60 cells [2]; HL-60 cells): 20/20 at 10 uM; HL-60, Dif50/IC50 column: first value of 'x/y at 10 uM' (differentiation) (HL60 cells [1]; HL-60 cells): 20/20 at 10 uM
O=C1C=C2C(C#CC3C=CCCC3)=C[C@@H]3C[C@@]2(O1)[C@H]1CCCCN31 (stereo partly shown) [INVS-MG-160B] |  |  |  |  |  | HL-60, Dif50/IC50 column: second value of 'x/y at 1.25 uM' (growth) (HL60 cells [2]; HL-60 cells, at 1.25 uM): 40; HL-60, Dif50/IC50 column: first value of 'x/y at 1.25 uM' (differentiation) (HL60 cells [1]; HL-60 cells, at 1.25 uM): 50
N#Cc1ccc(C#CC2=C[C@@H]3C[C@@]4(OC(=O)C=C24)[C@H]2CCCCN32)cc1 [INVS-MG-164B] |  | 6800 | 5200 | 6400 | 4200 | 
COc1cccc(C#CC2=C[C@@H]3C[C@@]4(OC(=O)C=C24)[C@H]2CCCCN32)c1 [INVS-MG-165B] |  | 3600 | 3200 | 4200 | 3500 | 
O=C1C=C2CC(S(=O)(=O)c3ccccc3)[C@@H]3C[C@@]2(O1)[C@H]1CCCCN31 (stereo partly shown) [INVS-MG-184B] | 5 to 7.5 |  |  |  |  | 
C#CC1=C[C@@H]2C[C@@]3(OC(=O)C=C13)[C@H]1CCCCN21 [INVS-MG-207-II] | > 0.07 |  |  |  |  | 
O=C1C=C2C(c3cn(Cc4ccccc4)nn3)=C[C@@H]3C[C@@]2(O1)[C@H]1CCCCN31 [INVS-MG-209A] |  |  |  |  |  | IC50 (HL60 cells [2]): < 10 µM; EC50 (HL60 cells [1]; Homo sapiens, HL-60, HL-60 cells, differentiation, read-out: HL-60, Dif50): < 10 µM
OC1C=C2CC(SCc3ccccc3)[C@@H]3C[C@@]2(O1)[C@H]1CCCCN31 (stereo partly shown) [Sec-2] | > 30 |  |  |  |  | 
Oc1ccccc1CSC1CC2=CC(O)O[C@@]23C[C@@H]1N1CCCC[C@@H]13 (stereo partly shown) [Sec-4] | 15 to 20 |  |  |  |  | 
OC1C=C2CC(SC3CCCC3)[C@@H]3C[C@@]2(O1)[C@H]1CCCCN31 (stereo partly shown) [Sec-6] | 15 to 20 |  |  |  |  | 
CSC1CC2=CC(O)O[C@@]23C[C@@H]1N1CCCC[C@@H]13 (stereo partly shown) [Sec-8] | 10 to 15 |  |  |  |  | 
COc1ccc(SC2CC3=CC(O)O[C@@]34C[C@@H]2N2CCCC[C@@H]24)cc1 (stereo partly shown) [Sec-9] | 20 to 30 |  |  |  |  | 
O=C1C=C2CC(N3CCN(c4ccc(Br)cc4)CC3)[C@@H]3C[C@@]2(O1)[C@H]1CCCCN31 (stereo partly shown) [Sec-11] | 15 to 20 |  |  |  |  | 
OC1CC2CC[C@@H]3C[C@@]2(O1)[C@H]1CCCCN31 (stereo partly shown) [Sec-16] | 20 to 30 |  |  |  |  | 
CC1CC2=CC(=O)O[C@@]23C[C@@H]1N1CCCC[C@@H]13 (stereo partly shown) [Sec-18 & Sec-20] | 20 to 30 |  |  |  |  | 
O=C1C=C2CC(S(=O)Oc3ccccc3)[C@@H]3C[C@@]2(O1)[C@H]1CCCCN31 (stereo partly shown) [Sec-19] | 20 to 30 |  |  |  |  | 
O=C1C=C2CC([S+]([O-])c3ccccc3)[C@@H]3C[C@@]2(O1)[C@H]1CCCCN31 (stereo partly shown) [Sec-21] | 20 to 30 |  |  |  |  | 
